From patent publication US20260085315A1, “POLYNUCLEOTIDE COMPOSITIONS AND METHODS FOR TREATMENT OF CANCER” (APTAH BIO, INC., priority 2023, published 2026)
d = 2'-deoxy (DNA); m = 2'-O-methyl

System: 786-O line
Test: MTT cytotoxicity assay on human cancer cell panel (Example 2)
Assay type: cell-based
Settings: 0.03-30 μM, 0.1% FBS
Procedure: Cell lines were maintained in growth medium with 10% of Fetal Bovine Serum (FBS) until the time of the experiments. Cells were sub-cultured by trypsinization and splitting the cell suspension into fresh flasks and supplementing with fresh culture medium. To perform the assay, the cells were trypsinized, neutralized with complete medium (10% FBS), centrifuged, counted with assistance of a hemocytometer, and plated with the respective media with 10% FBS. Cell lines were plated at a density of 1×10^4 cells per well, other than the SH-SY5Y cell line which was plated at a density of 2.5×10^4. The preparation of the different experimental groups was done with 0.1% FBS (U87MG, MCF-7, SH-SY5Y and 786-O) and 1% FBS (PC-3). The untreated cells were used as negative control (medium only). After 24, 48, 72 and 96 hours of incubation, the effect of ASMO1 and controls on cytotoxicity of cells was determined by MTT assay.
Briefly, plates were taken out and 20 μl of 5 mg/ml of MTT 3-(4,5-dimethythiazol-2-yl)-2,5-diphenyl tetrazolium bromide solution was added to all the wells. […] The absorbance of each well was then read at 540 nm using Synergy HT microplate reader.
Cells were plated and treated with 7 different concentrations (0.03, 0.1, 0.3, 1, 3, 10 and 30 μM) of APT20TTMG with medium (0.1% FBS). MTT assay was performed in 3 distinct times and graphs are represented as absorbance (540 nm). […]

APT20TTMG: engineered polynucleotide ASMO1, 24 nt, SEQ ID NO: 3 gtccactaacctttcaggccagcg; targeting moieties 5′-GTCCA-3′ and 5′-CG-3′, U1 snRNP recruiting moiety (GTCCACTAACCTTTCAGGCCAGCG; sugars from the 5' end m5 d14 m5, all phosphorothioate, methylation of C and T or U not given here)
cell viability (MTT) (48 and 72 hours): no difference when compared to the control (vehicle group), only in the highest concentration (30 μM)
cell viability (MTT) (24 hours): can alter cell viability
